Measurements as given in patent publication US7892350B2, “Sacrificial agents for fly ash concrete” (Boral Material Technologies Inc., priority 2003, dated 2011).

How the values were obtained:
[1] = Adsorption/precipitation of SA or AEA in 10 wt % aqueous fly ash or cement slurries at pH 12.5; format: physicochemical; conditions: initial SA 3 mM
Procedure: Adsorption/Precipitation of Sacrificial Agents (SA) or Air Entrainment Agents (AEA) in 10 wt % Aqueous Fly Ash Slurries at pH 12.5:
(§1) The pH of the solutions were adjusted to 12.5 with NaOH.
Adsorption/Precipitation in FA or Cement Slurries: In this protocol, aqueous slurries containing 10 wt % FA or cement were prepared as described above, except that in this case, the cement was added directly into a solution of the SA or AEA in the following proportions: 3.0 g cement or FA, and 27 g of 3 mM sacrificial agent, or 27 g of 1050 mg/l AEA; the latter were prepared in the same way as in the precipitation test above. The residual (soluble) SA or AEA content in the solution was also determined by UV or COD.

[2] = Precipitation in slurry extract or leachate; format: physicochemical; conditions: pH 12.5, entries in parentheses
Procedure: as §1
Precipitation in slurry extract or leachate: To perform this test, FA or cement leachate were prepared in advance, by filtering two liters of a 10 wt % FA, or cement, slurry in 0.03N NaOH which had been left to stand under slow agitation for 30 min; 2.5 g of the filtrate solution was mixed with 22.5 g of the SA or AEA solution in a 50 ml polypropylene centrifuge tube; the latter was shaken vigorously in an orbital shaker (Eberbach Corporation) for 30 min at room temperature, centrifuged for 5 min and then the supernatant solution was filtered (0.45 μm). The SA or AEA content of the solution was determined using an Ultraviolet-Visible (UV) spectrometer or by COD (Chemical Oxygen Demand) measurement.
Entries in parentheses: % precipitation when reacted with solutions extracted from the fly ash slurries (Results in Table 5).

Adsorption (wt % Adsorbed) ([1]; 10 wt % fly ash B1 (LOI 4.36%) slurry, Air 30/Air 40 0.105 wt %): 25 wt % | Adsorption (wt % Adsorbed) ([1]; 10 wt % fly ash C1, class C (LOI 1.62%) slurry, Air 30/Air 40 0.105 wt %): 25 wt % | Adsorption (wt % Adsorbed) ([1]; 10 wt % fly ash C2 (LOI 3.32%) slurry): 20 wt % | Adsorption (wt % Adsorbed) ([1]; 10 wt % fly ash M1 (LOI […]) slurry, Air 30/Air 40 0.105 wt %): 13 wt % | Adsorption (wt % Adsorbed) ([1]; 10 wt % fly ash M2 (LOI 5.34%) slurry, Air 30/Air 40 0.105 wt %): 23 wt % | Adsorption (wt % Adsorbed) ([1]; 10 wt % fly ash M3 (LOI 11.33%) slurry, Air 30/Air 40 0.105 wt %): 23 wt % | Adsorption (wt % Adsorbed) ([1]; 10 wt % fly ash N (LOI 0.30%) slurry): 16 wt % | Precipitation (wt % precipitated) ([2]; solution extracted from 10 wt % fly ash B1 (LOI 4.36%) slurry): 12 wt % | Precipitation (wt % precipitated) ([2]; solution extracted from 10 wt % fly ash C1, class C (LOI 1.62%) slurry): 11 wt % | Precipitation (wt % precipitated) ([2]; solution extracted from 10 wt % fly ash C2 (LOI 3.32%) slurry): 14 wt % | Precipitation (wt % precipitated) ([2]; solution extracted from 10 wt % fly ash M1 (LOI […]) slurry): 11 wt % | Precipitation (wt % precipitated) ([2]; solution extracted from 10 wt % fly ash M2 (LOI 5.34%) slurry): 15 wt % | Precipitation (wt % precipitated) ([2]; solution extracted from 10 wt % fly ash M3 (LOI 11.33%) slurry): 13 wt % | Precipitation (wt % precipitated) ([2]; solution extracted from 10 wt % fly ash N (LOI 0.30%) slurry): 11 wt %
Compound: NCc1ccccc1 [BA, Benzylamine]
